Tested on: HSV-2
Assay: Release of HSV-2 from infected Vero cells, plaque assay
Type: cell-based, Herpes simplex virus-2(A/B-G)
Conditions: for EC50: Human alphaherpesvirus 2, MOI 0.1, 24 h, read-out: EC50, inhibition of HSV-2 release; for Total infectious virus (released plus inside cells), HSV-2: 24 h, freeze/thaw lysate
Procedure: We infected Vero cells with HSV-1 and HSV-2 for two hours at a multiplicity of infection (MOI in pfu\cell) of 0.1 to assay the antiviral activity of tenatoprazole. Following infection, cells were treated with different concentrations of tenatoprazole. After 24 or 48 h the media fractions were collected and released virus titers were determined by standard plaque assays (30). Tenatoprazole caused a 3-log drop of HSV-1 and 4-5 log drop of HSV-2 in released infectious virus from Vero cells at 24 hours after infection in a dose dependent manner (Table 1, shown in FIG. 5, columns 2 and 3) with calculated EC50's ranging from 48-80 μM. Total virus titer was also determined to differentiate between virus released into the media and infectious particles present in cell lysate. […] The concentrations of tenatoprazole that blocked virus release were nontoxic to Vero cells as determined by a 96® AQueous One Solution cell proliferation assay reagent (Table 1, shown in FIG. 5, column 7). Taken together, tenatoprazole inhibited levels of both released and infectious virus particles without affecting cell viability at effective concentrations.
To examine the effects of the compounds on the release of HSV-2 from Vero cells, we infected the cells with virus two hours prior to treatment with media containing different concentrations of compound. We incubated the cells for 24 or 48 hours and then collected the cell media fractions.
Herpesvirus infection of Vero cells. Vero cells (0.8×10^6 cells/well of a 6-well plate) were infected with HSV-1 or HSV-2 at a MOI of 0.1 pfu/cell in DMEM with 1% serum for two hours in the C02 incubator at 37° C. In one experiment looking at the effect of tenatoprazole on HSV-2 release from cells 24 and 48 h a MOI of 3 pfu/cell was used. The cell supernatants were aspirated and replaced with 1 ml (24 h) or 2 ml (48 h and 72 h) of DMEM with 1% serum with DMSO or different concentrations of drug (tenatoprazole, ilaprazole, or analogs) dissolved in DMSO. After 24 or 48 h incubation, the cell supernatant was collected and frozen at −80° C. Virus titer in the cell media fraction was determined by standard plaque assays using 10-fold serial dilutions of cell supernatants of Vero cells and incubated for 48 h after which cells were fixed and stained to count the plaques (22). For determination of total virus (extracellular+cytoplasmic), virus infected cells were incubated for 24 h with and without drug presence, then the plate of cells were subjected to 3 cycles of freeze/thawing (−80° C./37° C.) 30 min each prior to collecting the supernatant after centrifugation for measurement of total virus titer. Virus titer was measured by standard plaque assay as above.
Drug potency and cell toxicity. EC50 calculations were determined by using AAT Bioquest's EC50 calculator. Cell toxicity at different concentrations of drugs as indicated was determine using the Cell Proliferation Reagent WST-1 (Roche Diagnostics) or cellular 96® Aqueous One Reagent viability reagent according to manufacturer's instructions. For 293T cells, the concentration of DMSO was 0.2% or less and assays were carried out with DMEM with 10% serum. Cell toxicity experiments were repeated twice.

SMILES	EC50 (Vero cells)	Total infectious virus (released plus inside cells), HSV-2 (Vero cells)	Drop in released infectious HSV-2 (Vero cells, 24 hours after infection, dose dependent)	Duration of inhibition of HSV-2 release after a single application (data not shown)	Anti-HSV-2 activity (release from Vero cells), in words (Table 2, 24 h)
COc1ccc2[nH]c([S+]([O-])Cc3ncc(C)c(OC)c3C)nc2n1 (stereo not shown) [Tenatoprazole]	48 to 80 µM	reduced by tenatoprazole, but not as strongly as virus released into the media	4-5 log	began to fall off after 48 h	–
COc1ccnc(C[S+]([O-])c2nc3ccc(-n4cccc4)cc3[nH]2)c1C (stereo not shown) [Ilaprazole, 2-[(4-methoxy-3-methylpyridin-2-yl)methylsulfinyl]-6-pyrrol-1-yl-1H-benzimidazole]	3 to 9 µM	significant drop in total virus	–	–	potent antiviral activity

Source: patent publication US11666562B2, “Ilaprazole for inhibiting the release of enveloped viruses from cells” (Northwestern University, priority 2020, dated 2023)
